From patent US20130072424A1, “COMPOUNDS AND METHODS FOR PEPTIDE RIBONUCLEIC ACID CONDENSATE PARTICLES FOR RNA THERAPEUTICS” (MARINA BIOTECH, INC., priority 2005, published 2013)
Ends that are not written are not given here.

Key:
[1] = system: mouse tail fibroblast (MTF) cells; experiment: siRNA cell-uptake assay and MFI (Cy5-conjugated siRNA, flow cytometry), Examples 14-16; type: cell-based
Description: As described above, the cell-uptake assay determines the number of cells that receive Cy5-conjugated siRNA when complexed with a peptide. siRNA cell-uptake was assessed by flow cytometry (refer to Example 2 for details). Uptake was expressed as a percentage calculated by dividing the number of cells containing Cy5-conjugated siRNA by the total number of transfected and untransfected cells in culture. Mean Fluorescence Intensity (MFI) was measured by flow cytometry and determined the amount of Cy5-conjugated siRNA found within cells. The MFI value directly correlates with the amount of Cy5-conjugated siRNA within the cell, thus, a higher MFI value indicates a greater number of Cy5-conjugated siRNA within the cells.
The siRNA cell-uptake assay and MFI measurements were performed as described previously in Examples 2 and 3. […]

in vitro = details: mouse, mouse tail fibroblast (MTF) cells
Description: Fluorescence activated cell sorting (FACS) analysis were performed using Beckman Coulter FC500 cell analyzer (Fullerton, Calif.). The instrument was adjusted according to the fluorescence probes used (FAM or Cy5 for siRNA and FITC and PE for CD14). Propidium iodide (Fluka, St Louis) and AnnexinV (R&D systems, Minneapolis) were used as indicators for cell viability and cytotoxicity. A brief step-by-step protocol is detailed below. • (a) After exposure to the complex of siRNA/peptide, cells were incubated for at least 3 hours. • (b) Wash cells with 200 μl PBS. • (c) Detach cells with 15 μl TE, incubate at 370 C. • (d) Re-suspend cells in five wells with 30 μl FACS solution (PBS with 0.5% BSA, and 0.1% sodium Azide). • (e) Combine all five wells into a tube. • (f) Add PI (Propidium iodide) 5 μl into each tube. • (g) Analyze the cells with fluorescence activated cell sorting (FCAS) according to manufacturer's instructions.
For siRNA uptake analysis, cells were washed with PBS, treated with trypsin (attached cells only), and then analyzed by flow cytometry. […] In order to differentiate the cellular uptake from the membrane insertion of fluorescence labeled siRNA, trypan blue was used to quench the fluorescence on the cell membrane surface.
FITC-tagged peptides were diluted in Opti-MEM® media (Invitrogen) for about 5 minutes at room temperature and then added to cells. Cells were transfected for 3 hours at and washed with PBS, treated with trypsin, and then analyzed by flow cytometry. Cell viability was determined as above. Cellular uptake was distinguished from the membrane insertion using trypan blue to quench any fluorescence on the cell membrane surface.

[2] = system: primary mouse tail fibroblast (MTF) cells; experiment: Peptide cell-uptake assay (FITC-labeled peptide, flow cytometry); type: cell-based; details: for Peptide FITC MFI: relative values
Description: The efficacy of the full-length and truncated forms of polypeptide PN73 to enter cells was tested in vitro by a cell-uptake assay with primary mouse tail fibroblast (MTF) cells. The number of cells in culture that receive the FITC-labeled peptide was measured by flow cytometry. The percentage peptide cell-uptake was expressed relative to the total number of cells present in the culture. In addition, the Mean Fluorescence Intensity (MFI) was used to evaluate the quantity of FITC-labeled peptide found within cells. MFI directly correlates with the amount of FITC-labeled peptide within the cell: higher relative MFI value correlates with a greater amount of intracellular FITC-labeled peptides. Peptides were evaluated at 0.63 μM, 2.5 μM and 10 μM concentrations; PN768 was tested at 2 μM, 10 μM and 50 μM. […]

[3] = PN73 mutant series, peptide 0.63 μM
[4] = PN73 mutant series, peptide 1.25 μM
[5] = PN73 mutant series, peptide 2.5 μM
[6] = PN73 mutant series, peptide 5 μM

Compound | % siRNA Cell-Uptake [1, 3] | siRNA Cy5 MFI [1, 3] | % siRNA Cell-Uptake [1, 4] | siRNA Cy5 MFI [1, 4] | % siRNA Cell-Uptake [1, 5] | siRNA Cy5 MFI [1, 5] | % siRNA Cell-Uptake [1, 6] | siRNA Cy5 MFI [1, 6] | viability at 0.63 µM (in vitro) | viability at 1.25 µM (in vitro) | viability at 2.5 µM (in vitro) | viability at 5 µM (in vitro) | % Peptide Cell-Uptake ([2]; peptide 50 µM) | Peptide FITC MFI ([2]; peptide 50 μM) | % Peptide Cell-Uptake ([2]; peptide 10 μM) | Peptide FITC MFI ([2]; peptide 10 μM) | % siRNA Cell-Uptake ([1]; peptide 10 μM) | siRNA Cy5 MFI ([1]; peptide 10 μM, relative values) | % siRNA Cell-Uptake ([1]; no peptide concentration printed) | siRNA Cy5 MFI ([1]; peptide .65 μM, relative values)
CC(C)C[C@H](NC(=O)[C@@H](NC(=O)[C@H](CCCCN)NC(=O)[C@H](Cc1ccc(O)cc1)NC(=O)[C@@H](NC(=O)[C@H](Cc1ccc(O)cc1)NC(=O)[C@@H](NC(=O)[C@H](Cc1c[nH]c2ccccc12)NC(=O)[C@H](Cc1ccc(O)cc1)NC(=O)[C@H](CO)NC(=O)[C@H](CCC(=O)O)NC(=O)[C@H](CCCCN)NC(=O)[C@H](CCCNC(=N)N)NC(=O)[C@H](CO)NC(=O)[C@H](CCCNC(=N)N)NC(=O)[C@H](CCCCN)NC(=O)[C@H](CCCNC(=N)N)NC(=O)[C@H](CCCCN)NC(=O)[C@H](CCCCN)NC(=O)CNC(=O)[C@H](CC(=O)O)NC(=O)[C@H](CCCCN)NC(=O)[C@H](CCCCN)NC(=O)[C@H](CCC(N)=O)NC(=O)[C@H](C)NC(=O)[C@H](CCCCN)NC(=O)[C@@H](NC(=O)[C@@H](NC(=O)[C@H](C)NC(=O)[C@H](CCCCN)NC(=O)[C@H](CCCCN)NC(=O)[C@H](CO)NC(=O)CNC(=O)[C@@H](N)CCCCN)C(C)C)[C@@H](C)O)C(C)C)C(C)C)C(C)C)C(=O)N[C@@H](CCCCN)C(=O)N[C@@H](CCC(N)=O)C(N)=O [PN644] | 67% | 4 | 71% | 8 | 70% | 24 | 83% | 37 | 88% | 90% | 86% | 87% | – | – | – | – | – | – | – | –
CC(C)C[C@H](NC(=O)[C@@H](NC(=O)[C@H](CCCCN)NC(=O)[C@H](Cc1ccc(O)cc1)NC(=O)[C@@H](NC(=O)[C@H](Cc1ccc(O)cc1)NC(=O)[C@@H](NC(=O)[C@H](CO)NC(=O)[C@H](Cc1ccc(O)cc1)NC(=O)[C@H](CO)NC(=O)[C@H](Cc1c[nH]c2ccccc12)NC(=O)[C@H](CCCCN)NC(=O)[C@H](CCCNC(=N)N)NC(=O)[C@H](CO)NC(=O)[C@H](CCCNC(=N)N)NC(=O)[C@H](CCCCN)NC(=O)[C@H](CCCNC(=N)N)NC(=O)[C@H](CCCCN)NC(=O)[C@H](CCCCN)NC(=O)CNC(=O)[C@H](CC(=O)O)NC(=O)[C@H](CCCCN)NC(=O)[C@H](CCCCN)NC(=O)[C@H](CCC(N)=O)NC(=O)[C@H](C)NC(=O)[C@H](CCCCN)NC(=O)[C@@H](NC(=O)[C@@H](NC(=O)[C@H](C)NC(=O)[C@H](CCCCN)NC(=O)[C@H](CCCCN)NC(=O)[C@H](CO)NC(=O)CNC(=O)[C@@H](N)CCCCN)C(C)C)[C@@H](C)O)C(C)C)C(C)C)C(C)C)C(=O)N[C@@H](CCCCN)C(=O)N[C@@H](CCC(N)=O)C(N)=O [PN645] | 68% | 5 | 70% | 11 | 78% | 21 | 88% | 28 | 84% | 89% | 90% | 90% | – | – | – | – | – | – | – | –
CC(C)C[C@H](NC(=O)[C@@H](NC(=O)[C@H](CCCCN)NC(=O)[C@H](Cc1ccc(O)cc1)NC(=O)[C@@H](NC(=O)[C@H](Cc1ccc(O)cc1)NC(=O)[C@@H](NC(=O)[C@H](CO)NC(=O)[C@H](Cc1ccc(O)cc1)NC(=O)[C@H](CO)NC(=O)[C@H](Cc1ccccc1)NC(=O)[C@H](CCCCN)NC(=O)[C@H](CCCNC(=N)N)NC(=O)[C@H](CO)NC(=O)[C@H](CCCNC(=N)N)NC(=O)[C@H](CCCCN)NC(=O)[C@H](CCCNC(=N)N)NC(=O)[C@H](CCCCN)NC(=O)[C@H](CCCCN)NC(=O)CNC(=O)[C@H](CC(=O)O)NC(=O)[C@H](CCCCN)NC(=O)[C@H](CCCCN)NC(=O)[C@H](CCC(N)=O)NC(=O)[C@H](C)NC(=O)[C@H](CCCCN)NC(=O)[C@@H](NC(=O)[C@@H](NC(=O)[C@H](C)NC(=O)[C@H](CCCCN)NC(=O)[C@H](CCCCN)NC(=O)[C@H](CO)NC(=O)CNC(=O)[C@@H](N)CCCCN)C(C)C)[C@@H](C)O)C(C)C)C(C)C)C(C)C)C(=O)N[C@@H](CCCCN)C(=O)N[C@@H](CCC(N)=O)C(N)=O [PN646] | 67% | 4 | 70% | 10 | 73% | 24 | 88% | 24 | 81% | 85% | 87% | 92% | – | – | – | – | – | – | – | –
KGSFKAVTKAQKKDGKKRKRSFKFSYSVYVYKVLKQ-NH2 [PN647] | 71% | 13 | 74% | 34 | 83% | 39 | 85% | 41 | 85% | 83% | 88% | 87% | – | – | – | – | – | – | – | –
KGSFKAVTKAQKKFGKKRKRSRKSFSVYVYKVLKQ-NH2 [PN729] | 61% | 4 | 69% | 10 | 79% | 16 | 86% | 30 | 82% | 91% | 92% | 90% | – | – | – | – | – | – | – | –
KVLKQ-GK[EPSILON-5CFG-amide [PN768] | – | – | – | – | – | – | – | – | – | – | – | – | 91 (50 µM) % | 9 (50 μM) | – | – | – | – | – | –
VYVYKVLKQ-GK[EPSILON-5CFG-amide (VYVYKVLKQG-{K(5CF)-Gly-NH2}) [PN652] | – | – | – | – | – | – | – | – | – | – | – | – | – | – | 86 (10 μM) % | 5 (10 μM) | 1.8 (10 μM) % | 5 (10 μM) | – | –
YKVLKQ-GK[EPSILON-5CFG-amide [PN651] | – | – | – | – | – | – | – | – | – | – | – | – | – | – | 90 (10 μM) % | 5 (10 μM) | – | – | 0% | 3 (.65 μM)
